These results are taken from patent US6498125B2, “Pyridine ketones useful as herbicides” (Syngenta Participations AG, priority 1998, dated 2002).

Data set [1] concerns Monocotyledonous and dicotyledonous test plants. Put plainly: Example B1: pre-emergence herbicidal action, 2 kg of AS/ha. In kind it is in vivo. The settings on record: 3 weeks, scale 1-9; for pre-emergence action rating, Avena: test plant Avena; for pre-emergence action rating, Cyperus: test plant Cyperus; for pre-emergence action rating, Setaria: test plant Setaria; for pre-emergence action rating, Sinapis: test plant Sinapis; for pre-emergence action rating, Solanum: test plant Solanum; for pre-emergence action rating, Stellaria: test plant Stellaria. The procedure: Monocotyledonous and dicotyledonous test plants are sown in standard soil in plastic pots. Immediately after sowing, the test substances are sprayed on (500 l of water/ha) as an aqueous suspension (prepared from a 25% wettable powder (Example F3, b) according to WO 97/34485) or emulsion (prepared from a 25% emulsion concentrate (Example F1, c)), corresponding to a dosage of 2 kg of AS/ha. The test plants are then grown under optimum conditions in a greenhouse. After a test period of 3 weeks, the test is evaluated with a nine-level scale of ratings (1=complete damage, 9=no effect). Ratings of 1 to 4 (in particular 1 to 3) mean good to very good herbicidal action.

The test system is the same in data set [2]. Put plainly: Example B2: post-emergence herbicidal action, 2 kg of AS/ha. Format: in vivo. Further details: key: 1 = complete damage, 9 = no effect. The conditions noted are these: 4- to 6-leaf stage, about 18 days, scale 1-9; for post-emergence action rating, Avena: test plant Avena; for post-emergence action rating, Setaria: test plant Setaria; for post-emergence action rating, Sinapis: test plant Sinapis; for post-emergence action rating, Solanum: test plant Solanum; for post-emergence action rating, Stellaria: test plant Stellaria. The method, then:
Monocotyledonous and dicotyledonous test plants are grown in plastic pots with standard soil in a greenhouse and, in the 4- to 6-leaf stage, are sprayed with an aqueous suspension of the test substances of the formula 1, prepared from a 25% wettable powder (Example F3, b) according to WO 97134485) or with an emulsion of the test substances of the formula I, prepared from a 25% emulsion concentrate (Example F1, c) according to WO 97/34485), corresponding to a dosage of 2 kg of AS/ha (500 l of water/ha). The test plants are then grown further under optimum conditions in a greenhouse. After a test period of about 18 days, the test is evaluated with a nine-level scale of rating (1=complete damage, 9=no effect). Ratings of 1 to 4 (in particular 1 to 3) mean good to very good herbicidal action. In this test, the compounds of the formula I show strong herbicidal action.

Compound `Cc1nc(C(F)(F)F)ccc1C(=O)C1=C(N)C2CCC(C2)C1=O` (stereo not shown) [Compound 1.399, 4-amino-3-(2-methyl-6-trifluoromethylpyridine-3-carbonyl)bicyclo[3.2.1]oct-3en-2-one] returned a melting point of 262 to 263 °C.

Consider `C=CC(=O)OC1=C(C(=O)c2ccc(C(F)(F)F)nc2C)C(=O)C2CCC1C2` (stereo not shown) [Compound 1.405], for which, in data set [1], the “pre-emergence action rating, Avena” value came out at 2; the “pre-emergence action rating, Cyperus” value worked out at 1; the “pre-emergence action rating, Setaria” value is recorded as 1; the “pre-emergence action rating, Sinapis” value turned out to be 1. Further, in data set [1], the “pre-emergence action rating, Solanum” value worked out at 1 and the “pre-emergence action rating, Stellaria” value turned out to be 2. In data set [2], the “post-emergence action rating, Avena” value amounted to 2; the “post-emergence action rating, Setaria” value is reported as 2; the “post-emergence action rating, Sinapis” value is listed as 1; the “post-emergence action rating, Solanum” value was determined as 2. Moreover, in data set [2], the “post-emergence action rating, Stellaria” value came to 2.

As to `CC=CC(=O)OC1=C(C(=O)c2ccc(C(F)(F)F)nc2C)C(=O)C2CCC1C2` (stereo not shown) [Compound 1.406], in data set [1], the “pre-emergence action rating, Avena” value is 2; the “pre-emergence action rating, Cyperus” value was found to be 1; the “pre-emergence action rating, Setaria” value came out at 1; the “pre-emergence action rating, Sinapis” value came to 1. In addition, in data set [1], the “pre-emergence action rating, Solanum” value is given as 1 and the “pre-emergence action rating, Stellaria” value was 2. For the same compound, in data set [2], the “post-emergence action rating, Avena” value is 2; the “post-emergence action rating, Setaria” value turned out to be 2; the “post-emergence action rating, Sinapis” value is 1; the “post-emergence action rating, Solanum” value stood at 1. For the same compound, in data set [2], the “post-emergence action rating, Stellaria” value is 2.

`CCOC(=O)OC1=C(C(=O)c2ccc(C(F)(F)F)nc2C)C(=O)C2CCC1C2` (stereo not shown) [Compound 1.409]: in data set [1], the “pre-emergence action rating, Avena” value turned out to be 1; the “pre-emergence action rating, Cyperus” value came to 1; the “pre-emergence action rating, Setaria” value amounted to 1; the “pre-emergence action rating, Sinapis” value was 1. Moreover, in data set [1], the “pre-emergence action rating, Solanum” value came to 1 and the “pre-emergence action rating, Stellaria” value is listed as 1. In data set [2], the “post-emergence action rating, Avena” value is on record as 2; the “post-emergence action rating, Setaria” value was found to be 1; the “post-emergence action rating, Sinapis” value is reported as 1; the “post-emergence action rating, Solanum” value came out at 1. Besides, in data set [2], the “post-emergence action rating, Stellaria” value is recorded as 2.

Take `Cc1nc(C(F)(F)C(F)(F)C(F)(F)C(F)(F)F)ccc1C(=O)C1=C(O)C2CCC(C2)C1=O` (stereo not shown) [Compound 1.411]: in data set [1], the “pre-emergence action rating, Avena” value worked out at 3; the “pre-emergence action rating, Cyperus” value is 2; the “pre-emergence action rating, Setaria” value was determined as 1; the “pre-emergence action rating, Sinapis” value is 2. Also, in data set [1], the “pre-emergence action rating, Solanum” value was found to be 1 and the “pre-emergence action rating, Stellaria” value was 2. Besides, in data set [2], the “post-emergence action rating, Avena” value was determined as 2; the “post-emergence action rating, Setaria” value is 2; the “post-emergence action rating, Sinapis” value was 1; the “post-emergence action rating, Solanum” value is on record as 2. Further, the “post-emergence action rating, Stellaria” value in data set [2] was found to be 2.

As for `Cc1nc(C(F)(F)F)ccc1C(=O)C1=C(Sc2ccc(Cl)cc2)C2CCC(C2)C1=O` (stereo not shown) [Compound 1.412, 4-(4-chlorophenylsulfanyl)-3-(2-methyl-6-trifluoromethylpyridine-3-carbonyl)bicyclo[3.2.1]oct-3-en-2-one], the melting point lay within 130 to 131 °C.

In turn, `Cc1nc(C(F)(F)F)ccc1C(=O)C1=C(S(=O)(=O)c2ccc(Cl)cc2)C2CCC(C2)C1=O` (stereo not shown) [Compound 1.414, 4-(4-chlorobenzenesulfonyl)-3-(2-methyl-6-trifluoromethylpyridine-3-carbonyl)bicyclo[3.2.1]oct-3-en-2-one] yielded a melting point of 166 to 167 °C.

Turning to `CSc1nc(C(=O)C2=C(O)C3CCC(C3)C2=O)ccc1C(F)(F)F` (stereo not shown) [Compound 2.03], the melting point lay within 107 to 110 °C.

With `COc1nc(C(=O)C2=C(O)C3CCC(C3)C2=O)ccc1C(F)(F)F` (stereo not shown) [Compound 2.038], the melting point was 111 to 113 °C.

`O=C(C1=C(O)C2CCC(C2)C1=O)c1ncc(C(F)(F)F)cc1Cl` (stereo not shown) [Compound 2.044] had a melting point of 105 to 106 °C.

Consider `O=C(C1=C(O)C2CCC(C2)C1=O)c1ccnc(C(F)(F)F)c1` (stereo not shown) [Compound 3.001], for which the melting point lay in the range of 95 to 97 °C.

`CSc1nccc(C(=O)C2=C(O)C3CCC(C3)C2=O)c1C#N` (stereo not shown) [Compound 3.055] yielded a melting point of 108 to 110 °C.

Turning to `Cc1nc(C(F)(F)F)ccc1C(=O)C1=C(O)C(C)(C)ON(C)C1=O` [Compound 4.009], in data set [1], the “pre-emergence action rating, Avena” value is recorded as 1; the “pre-emergence action rating, Cyperus” value is given as 2; the “pre-emergence action rating, Setaria” value is reported as 1; the “pre-emergence action rating, Sinapis” value stood at 2. In addition, in data set [1], the “pre-emergence action rating, Solanum” value is reported as 1 and the “pre-emergence action rating, Stellaria” value is given as 3. Moreover, in data set [2], the “post-emergence action rating, Avena” value was 1; the “post-emergence action rating, Setaria” value was 1; the “post-emergence action rating, Sinapis” value was 1; the “post-emergence action rating, Solanum” value worked out at 1. For the same compound, the “post-emergence action rating, Stellaria” value in data set [2] amounted to 1.

As for `COCc1nc(C(F)(F)F)ccc1C(=O)C1=C(O)C(C)(C)ON(C)C1=O` [Compound 4.021], in data set [1], the “pre-emergence action rating, Avena” value came out at 2; the “pre-emergence action rating, Cyperus” value is recorded as 1; the “pre-emergence action rating, Setaria” value worked out at 2; the “pre-emergence action rating, Sinapis” value worked out at 2. Moreover, in data set [1], the “pre-emergence action rating, Solanum” value was found to be 1 and the “pre-emergence action rating, Stellaria” value was determined as 2. Also, in data set [2], the “post-emergence action rating, Avena” value is recorded as 2; the “post-emergence action rating, Setaria” value is reported as 2; the “post-emergence action rating, Sinapis” value is 1; the “post-emergence action rating, Solanum” value is 1. The “post-emergence action rating, Stellaria” value in data set [2] worked out at 2.

For the compound `Cc1nc(C(F)(F)Cl)ccc1C(=O)C1=C(O)C(C)(C)ON(C)C1=O` [Compound 4.124], in data set [1], the “pre-emergence action rating, Avena” value is 2; the “pre-emergence action rating, Cyperus” value is listed as 1; the “pre-emergence action rating, Setaria” value is recorded as 2; the “pre-emergence action rating, Sinapis” value is 2. For the same compound, in data set [1], the “pre-emergence action rating, Solanum” value turned out to be 1 and the “pre-emergence action rating, Stellaria” value came out at 2. Moreover, in data set [2], the “post-emergence action rating, Avena” value is listed as 2; the “post-emergence action rating, Setaria” value is recorded as 2; the “post-emergence action rating, Sinapis” value was found to be 1; the “post-emergence action rating, Solanum” value was determined as 1. Moreover, the “post-emergence action rating, Stellaria” value in data set [2] stood at 2.

For `CC1=CC(C)(C)C(O)=C(C(=O)c2ccc(C(F)(F)F)nc2C)C1=O` [Compound 5.008], in data set [1], the “pre-emergence action rating, Avena” value is 2; the “pre-emergence action rating, Cyperus” value stood at 1; the “pre-emergence action rating, Setaria” value worked out at 1; the “pre-emergence action rating, Sinapis” value is on record as 2. For the same compound, in data set [1], the “pre-emergence action rating, Solanum” value stood at 1 and the “pre-emergence action rating, Stellaria” value came to 2. In data set [2], the “post-emergence action rating, Avena” value is listed as 2; the “post-emergence action rating, Setaria” value was 3; the “post-emergence action rating, Sinapis” value was found to be 1; the “post-emergence action rating, Solanum” value amounted to 1. Further, the “post-emergence action rating, Stellaria” value in data set [2] is recorded as 2.

As for `Cc1nc(C(F)(F)F)ccc1C(=O)C1=C(O)C(C)(C)C=C([S+](C)[O-])C1=O` (stereo not shown) [Compound 5.083], the melting point was 161 to 162 °C.

`Cc1nc(C(F)(F)F)ccc1C(=O)C1=C(O)C(C)(C)C=C(S(C)(=O)=O)C1=O` [Compound 5.084] yielded a melting point of 215 to 216 °C.

In turn, `Cc1nc(C(F)(F)F)ccc1C(=O)C1=C(O)CC(NC(=O)C(C)C)CC1=O` (stereo not shown) [Compound 6.041] returned a melting point of 186 to 187 °C.

Consider `Cc1nc(C(F)(F)F)ccc1C(=O)C1=C(O)CC(NC(=O)Nc2ccccc2)CC1=O` (stereo not shown) [Compound 6.076], for which the melting point lay in the range of 195 to 196 °C.

For the compound `Cc1nc(C(F)(F)F)ccc1C(=O)C1=C(O)CC(NC(=O)NC(C)(C)C)CC1=O` (stereo not shown) [Compound 6.111], the melting point fell in the range of 163 to 164 °C.

The compound `Cc1nc(C(F)(F)F)ccc1C(=O)c1c([S+](C)[O-])noc1C1CC1` (stereo not shown) [Compound 8.009, (5-cyclopropyl-3-methylsulfinylisoxazol-4-yl)-(2-methyl-6-trifluoromethylpyridin-3-yl)methanone] had a melting point of 96 to 97 °C.

The compound `Cc1nc(C(F)(F)F)ccc1-c1onc([S+](C)[O-])c1C(=O)C1CC1` (stereo not shown) [Compound 9.009, cyclopropyl-[3-methanesulfinyl-5-(2-methyl-6-trifluoromethylpyridin-3yl)isoxazol4-yl]methanone] displayed a melting point of 112 to 113 °C.

What is called melting point is the temperature, or range, at which the solid turns liquid.
